Measurements taken from patent publication US20230279426A1, “MODIFIED VIRAL COMPOSITIONS FOR VIRAL TRANSDUCTION” (Lycia Therapeutics, Inc., priority 2020, published 2023).

Experiments:
Jurkat cells = test: Intracellular uptake of anti-IgG2a conjugates with IgG2a-Alexa488 in Jurkat cells; type: cell-based, human; settings: 1 h and 24 h
Method: Anti-IgG2a conjugates were generated by adding anti-IgG2a rIgG1 (Southern Biotech, Cat #1155-ol) to a solution of PBS buffer pH 7.2 containing 10% DMSO (final antibody concentration 5 mg/mL). Linker (e.g., Compound I-7) was added (at a 5-40× linker:antibody molar ratio), and the reaction was incubated at room temperature for 3 hours. Excess linker was removed by size exclusion chromatography (Superdex 200 Increase. Cat i28990944) and final DAR, was determined by LC/MS (Sciex 5600+. Acquity UPLC BEH C4 column. Cat #186004495). The resulting rIgG1 antibody conjugates were used in the experiments below.
The anti-IgG2a conjugates were bound to IgG2a-Alexa488, as follows: equal molar ratios of anti-IgG2a and IgG2a-Alexa488 were added in tissue culture media for 30 minutes at room temperature. The resulting anti-IgG2a:IgG2a antibody-Alexa488 compositions were added to Jurkat cells (100k cells/50 ul per well, n=2), and Alexa488 fluorescence levels were measured (via Alexa488 measurement) at 1 hour and 24 hours by flow cytometry. Because Alexa488 accumulates in cells, this presents a way to measure total intracellular uptake by cells over time.

[1] = target: T1, recombinant human CI-M6PR protein (Homo sapiens, UniProt P11717); test: M6PR binding ELISA of matuzumab ligand-linker conjugates; settings: conjugates of ligand linkers
T1 construct: purchased R&D 6418-GR-050
T1 sequence (P11717 41-2491): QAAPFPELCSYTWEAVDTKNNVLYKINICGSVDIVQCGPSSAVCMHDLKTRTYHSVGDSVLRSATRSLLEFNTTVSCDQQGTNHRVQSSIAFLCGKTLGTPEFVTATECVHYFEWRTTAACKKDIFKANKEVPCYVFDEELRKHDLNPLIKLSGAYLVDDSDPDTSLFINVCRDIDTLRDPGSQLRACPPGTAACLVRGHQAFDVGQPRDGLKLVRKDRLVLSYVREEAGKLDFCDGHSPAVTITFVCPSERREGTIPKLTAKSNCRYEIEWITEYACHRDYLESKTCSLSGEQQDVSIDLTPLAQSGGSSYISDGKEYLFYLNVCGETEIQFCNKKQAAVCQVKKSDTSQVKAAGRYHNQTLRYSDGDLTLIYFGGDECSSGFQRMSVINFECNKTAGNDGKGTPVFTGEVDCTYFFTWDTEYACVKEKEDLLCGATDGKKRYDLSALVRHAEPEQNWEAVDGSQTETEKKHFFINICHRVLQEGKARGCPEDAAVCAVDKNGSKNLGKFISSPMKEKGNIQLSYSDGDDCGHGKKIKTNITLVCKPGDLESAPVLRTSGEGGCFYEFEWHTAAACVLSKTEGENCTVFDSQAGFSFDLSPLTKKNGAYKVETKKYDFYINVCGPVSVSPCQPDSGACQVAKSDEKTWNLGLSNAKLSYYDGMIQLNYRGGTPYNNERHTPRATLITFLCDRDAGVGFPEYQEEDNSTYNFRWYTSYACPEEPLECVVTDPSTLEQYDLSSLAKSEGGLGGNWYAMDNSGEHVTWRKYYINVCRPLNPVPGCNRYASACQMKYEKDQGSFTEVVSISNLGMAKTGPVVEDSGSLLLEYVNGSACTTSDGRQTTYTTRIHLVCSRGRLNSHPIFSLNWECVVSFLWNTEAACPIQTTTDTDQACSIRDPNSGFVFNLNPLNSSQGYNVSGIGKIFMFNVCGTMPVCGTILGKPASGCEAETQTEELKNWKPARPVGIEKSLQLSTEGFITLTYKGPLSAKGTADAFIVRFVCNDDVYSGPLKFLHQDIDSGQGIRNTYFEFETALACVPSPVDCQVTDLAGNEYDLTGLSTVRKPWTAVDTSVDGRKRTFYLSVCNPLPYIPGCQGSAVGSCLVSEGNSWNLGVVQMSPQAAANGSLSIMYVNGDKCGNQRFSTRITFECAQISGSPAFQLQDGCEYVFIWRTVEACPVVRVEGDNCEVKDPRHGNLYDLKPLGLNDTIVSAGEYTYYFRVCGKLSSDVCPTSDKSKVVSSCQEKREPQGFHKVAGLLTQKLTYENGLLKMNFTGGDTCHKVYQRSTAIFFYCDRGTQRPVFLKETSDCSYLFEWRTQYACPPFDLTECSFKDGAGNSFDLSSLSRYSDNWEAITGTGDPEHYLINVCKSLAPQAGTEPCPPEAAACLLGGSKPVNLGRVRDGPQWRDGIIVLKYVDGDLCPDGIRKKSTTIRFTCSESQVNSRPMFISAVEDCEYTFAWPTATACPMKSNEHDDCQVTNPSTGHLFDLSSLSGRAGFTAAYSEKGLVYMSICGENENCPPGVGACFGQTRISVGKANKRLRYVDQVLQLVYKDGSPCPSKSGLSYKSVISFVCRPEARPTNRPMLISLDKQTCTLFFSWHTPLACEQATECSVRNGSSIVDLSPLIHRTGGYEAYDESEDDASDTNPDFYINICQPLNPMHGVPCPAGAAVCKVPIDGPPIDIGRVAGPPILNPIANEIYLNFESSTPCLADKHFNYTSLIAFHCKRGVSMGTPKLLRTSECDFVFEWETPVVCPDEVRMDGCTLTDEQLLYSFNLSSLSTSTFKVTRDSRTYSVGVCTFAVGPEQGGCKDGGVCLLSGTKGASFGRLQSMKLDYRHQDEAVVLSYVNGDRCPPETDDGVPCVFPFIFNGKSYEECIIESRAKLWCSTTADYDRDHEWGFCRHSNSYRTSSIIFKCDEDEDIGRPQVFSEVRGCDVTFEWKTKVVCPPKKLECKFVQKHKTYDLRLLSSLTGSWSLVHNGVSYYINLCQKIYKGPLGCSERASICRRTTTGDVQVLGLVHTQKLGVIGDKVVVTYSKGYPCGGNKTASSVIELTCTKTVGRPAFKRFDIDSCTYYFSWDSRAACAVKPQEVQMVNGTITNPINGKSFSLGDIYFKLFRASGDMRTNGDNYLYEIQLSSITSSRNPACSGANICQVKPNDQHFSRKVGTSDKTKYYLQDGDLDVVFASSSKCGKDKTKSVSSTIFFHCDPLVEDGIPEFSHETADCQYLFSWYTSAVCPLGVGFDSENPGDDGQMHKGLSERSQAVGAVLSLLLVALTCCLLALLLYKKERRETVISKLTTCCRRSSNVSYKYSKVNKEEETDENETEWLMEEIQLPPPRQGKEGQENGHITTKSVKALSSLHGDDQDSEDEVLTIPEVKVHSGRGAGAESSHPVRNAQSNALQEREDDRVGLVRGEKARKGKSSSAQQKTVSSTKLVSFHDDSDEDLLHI
Method: Binding affinity of matuzumab conjugated to ligand-linkers for M6PR w as determined by ELISA using the following protocol: Nunc black solid bottom MaxiSorp plates were allowed to incubate overnight at 4° C. coated with 1 μg/mL of recombinant human CI-M6PR protein (R&D, 6418-GR-050) in 50 μL PBS. The next day, coating was decanted and plates were washed 3× with PBS. Wells were blocked with 350 μL of 3% BSA-PBS for 1 hour at room temperature. Blocking solution was removed and matuzumab conjugates (matuzumab-Compound I-7 (d4), matuzumab-Compound I-7 (d8), matuzumab-Compound I-8 (d4), matuzumab-Compound I-9 (d4), matuzumab-Compound I-11 (d4) and matuzumab-Compound I-12 (d4)) and their respective isotype controls (human IgG (bioxcell, BP0297) conjugated to the ligand-linker compounds being tested) were diluted in 3% BSA-PBS. 50 µL of diluted conjugates were added to the plate and allowed to incubate at room temperature for 2 hours. After incubation, solutions in plate were decanted and washed with […] of 0.05% PBS-Tween20 three times, drying the plate each wash on a clean paper towel. 50 μL of peroxidase AffiniPure Mouse Anti-Human IgG (Jackson Immuno, 209-035-088) diluted in 3% BSA-PBS to 0.2 μg/mL was added to the plate and allowed to incubate for 1 hour at room temperature in the dark. […]

Compound	intracellular uptake (Alexa488 fluorescence) (Jurkat cells)	binding affinity to M6PR relative to Compound I-7 [1]
O=C(CCN1C(=O)C=CC1=O)NCCOCCOCCOCCn1cc(CCO[C@H]2O[C@H](CCP(=O)(O)O)[C@@H](O)[C@H](O)[C@@H]2O)nn1 [Compound I-10]	sufficiently robust uptake	weaker binding affinity to M6PR than Compound I-7
O=C(CCOCCn1cc(CCO[C@H]2O[C@H](CCP(=O)(O)O)[C@@H](O)[C@H](O)[C@@H]2O)nn1)Oc1c(F)c(F)c(F)c(F)c1F [Compound I-11]	sufficiently robust uptake	weaker binding affinity to M6PR than Compound I-7
